Results reported in PubChem BioAssay AID328 (DTP/NCI, 2004).
“And” between values parts separate entries of the source, which are not always exact repeats. Equal values may be shown once. Toxic doses and inconclusive results are not listed. Residues, ends and D or L forms follow the SMILES beside them. *: point of attachment. Bn = c1ccc(C*)cc1

System: BDF1 mice, P388 leukemia ip, median survival T/C
Test: NCI In Vivo Anticancer Drug Screen. Data for tumor model P388 Leukemia (intraperitoneal) in B6D2F1 (BDF1) mice
Conditions: endpoint: median survival time, higher = longer survival
Method in brief: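 Reported as T/C, where T is the survival measurement in dosed animals and C the same measurement in vehicle controls.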

[1] = dose: 12.5 mg/kg/injection, schedule: Q01DX009 (ip), vehicle: saline with Tween-80
[2] = dose: 25.0 mg/kg/injection, schedule: Q01DX009 (ip), vehicle: saline with Tween-80
[3] = dose: 50.0 mg/kg/injection, schedule: Q01DX009 (ip), vehicle: saline with Tween-80
[4] = dose: 100.0 mg/kg/injection, schedule: Q01DX009 (ip), vehicle: saline with Tween-80
[5] = dose: 100.0 mg/kg/injection, schedule: Q04DX003 (ip), vehicle: saline with Tween-80
[6] = dose: 75.0 mg/kg/injection, schedule: Q04DX003 (ip), vehicle: saline with Tween-80
[7] = dose: 150.0 mg/kg/injection, schedule: Q04DX003 (ip), vehicle: saline with Tween-80
[8] = dose: 200.0 mg/kg/injection, schedule: Q01DX009 (ip), vehicle: saline with Tween-80
[9] = dose: 400.0 mg/kg/injection, schedule: Q01DX009 (ip), vehicle: saline with Tween-80
[10] = dose: 200.0 mg/kg/injection, schedule: Q04DX003 (ip), vehicle: saline with Tween-80
[11] = dose: 400.0 mg/kg/injection, schedule: Q04DX003 (ip), vehicle: saline with Tween-80
[12] = dose: 100.0 mg/kg/injection, schedule: Q01DX001 (ip), vehicle: Klucel (hydroxypropylcellulose) (HPC)
[13] = dose: 1.56 mg/kg/injection, schedule: Q01DX009 (ip), vehicle: saline with Tween-80
[14] = dose: 6.25 mg/kg/injection, schedule: Q01DX009 (ip), vehicle: saline with Tween-80

COC(=O)C(CC(C)C)NC(=O)C(N)Cc1ccc(OCc2ccccc2)cc1 (stereo unspecified) (H-Tyr(Bn)-Leu-OMe; configuration not given here)
T/C [1]: 105 % of control | T/C [2]: 100 % of control | T/C [3]: 105 % of control and 120 % of control | T/C (dose: 50.0 mg/kg/injection, schedule: Q04DX003 (ip), vehicle: saline with Tween-80): 105 % of control | T/C [4]: 105 % of control | T/C [5]: 100 % of control

COc1c2c(c(OC(C)=O)c3c1C(=O)c1ccccc1C3=O)CCCC2
T/C (dose: 6.25 mg/kg/injection, schedule: Q01DX001 (ip), vehicle: saline): 115 % of control | T/C (dose: 12.5 mg/kg/injection, schedule: Q01DX001 (ip), vehicle: saline): 115 % of control | T/C (dose: 25.0 mg/kg/injection, schedule: Q01DX001 (ip), vehicle: saline): 115 % of control | T/C (dose: 50.0 mg/kg/injection, schedule: Q01DX001 (ip), vehicle: saline): 115 % of control | T/C (dose: 100.0 mg/kg/injection, schedule: Q01DX001 (ip), vehicle: saline): 115 % of control

c1ccc(COc2ccc(OCc3ccccc3)cc2)cc1
T/C [6]: 104 % of control | T/C [7]: 109 % of control | T/C (dose: 300.0 mg/kg/injection, schedule: Q04DX003 (ip), vehicle: saline with Tween-80): 104 % of control

CCOC(=O)c1ccc(N)c(C(O)(C(F)(F)F)C(F)(F)F)c1
T/C [4]: 90 % of control | T/C [8]: 100 % of control | T/C [9]: 104 % of control

CCCCCCCCCCCCCCCCCCNC(=S)N/N=C/c1ccc(Cl)cc1Cl
T/C (dose: 50.0 mg/kg/injection, schedule: Q04DX003 (ip), vehicle: Klucel (hydroxypropylcellulose) (HPC)): 105 % of control | T/C (dose: 100.0 mg/kg/injection, schedule: Q04DX003 (ip), vehicle: Klucel (hydroxypropylcellulose) (HPC)): 90 % of control | T/C [5]: 100 % of control | T/C [10]: 100 % of control | T/C [11]: 100 % of control

COc1cc(-c2cc(=O)c3c(OC)c(OC)c(OC)c(OC)c3o2)cc2c1OCO2
T/C (dose: 100.0 mg/kg/injection, schedule: Q04DX002 (ip), vehicle: Klucel (hydroxypropylcellulose) (HPC)): 97 % of control | T/C (dose: 200.0 mg/kg/injection, schedule: Q04DX002 (ip), vehicle: Klucel (hydroxypropylcellulose) (HPC)): 103 % of control | T/C (dose: 400.0 mg/kg/injection, schedule: Q04DX002 (ip), vehicle: Klucel (hydroxypropylcellulose) (HPC)): 97 % of control

COc1ccc(C(=O)CC(c2ccc3c(c2)OCO3)c2c(O)c3ccccc3oc2=O)cc1OC (stereo unspecified)
T/C [2]: 91 % of control | T/C [3]: 116 % of control | T/C (dose: 75.0 mg/kg/injection, schedule: Q01DX009 (ip), vehicle: saline with Tween-80): 88 % of control | T/C [4]: 97 % of control and 123 % of control | T/C (dose: 150.0 mg/kg/injection, schedule: Q01DX009 (ip), vehicle: saline with Tween-80): 101 % of control | T/C [8]: 87 % of control

O=[N+]([O-])O.[Ag]
T/C (dose: 10.0 mg/kg/injection, schedule: Q01DX009 (ip), vehicle: saline with Tween-80): 96 % of control | T/C (dose: 40.0 mg/kg/injection, schedule: Q01DX009 (ip), vehicle: saline with Tween-80): 92 % of control | T/C (dose: 40.0 mg/kg/injection, schedule: Q04DX003 (ip), vehicle: saline with Tween-80): 90 % of control

S=c1[nH]nc(NC2CCCCC2)s1
T/C (dose: 25.0 mg/kg/injection, schedule: Q01DX001 (ip), vehicle: Klucel (hydroxypropylcellulose) (HPC)): 100 % of control | T/C (dose: 50.0 mg/kg/injection, schedule: Q01DX001 (ip), vehicle: Klucel (hydroxypropylcellulose) (HPC)): 112 % of control | T/C [12]: 87 % of control

CCOc1cc(/C=N\Nc2nnc(C)n2N)c(C)cc1N(CCCl)CCCl
T/C (dose: 5.5 mg/kg/injection, schedule: Q01DX009 (ip), vehicle: saline with Tween-80): 200 % of control | T/C (dose: 8.3 mg/kg/injection, schedule: Q01DX009 (ip), vehicle: saline with Tween-80): 209 % of control | T/C [1]: 272 % of control | T/C (dose: 18.7 mg/kg/injection, schedule: Q01DX009 (ip), vehicle: saline with Tween-80): 195 % of control | T/C (dose: 40.0 mg/kg/injection, schedule: Q04DX003 (ip), vehicle: saline): 204 % of control | T/C (dose: 50.0 mg/kg/injection, schedule: Q04DX003 (ip), vehicle: saline sonified): 168 % of control | T/C (dose: 100.0 mg/kg/injection, schedule: Q04DX003 (ip), vehicle: saline sonified): 86 % of control

O=S(=O)(O/C1=C/CCCCCC1)C(F)(F)C(F)(F)C(F)(F)C(F)(F)F
T/C (dose: 50.0 mg/kg/injection, schedule: Q01DX009 (ip), vehicle: saline): 107 % of control | T/C (dose: 100.0 mg/kg/injection, schedule: Q01DX009 (ip), vehicle: saline): 109 % of control | T/C (dose: 200.0 mg/kg/injection, schedule: Q01DX009 (ip), vehicle: saline): 109 % of control

CC(=O)NCC(S)c1ccc(Cl)cc1 (stereo unspecified)
T/C [5]: 118 % of control | T/C [10]: 95 % of control | T/C [11]: 90 % of control

O=C(OCCCCOC(=O)c1cccc([N+](=O)[O-])c1)c1cccc([N+](=O)[O-])c1
T/C (dose: 3.0 mg/kg/injection, schedule: Q04DX003 (ip), vehicle: saline with Tween-80): 115 % of control | T/C (dose: 6.0 mg/kg/injection, schedule: Q04DX003 (ip), vehicle: saline with Tween-80): 110 % of control | T/C (dose: 12.0 mg/kg/injection, schedule: Q04DX003 (ip), vehicle: saline with Tween-80): 120 % of control

COc1ccc(CCO)cc1OC
T/C (dose: 50.0 mg/kg/injection, schedule: Q01DX009 (ip), vehicle: water): 97 % of control | T/C (dose: 100.0 mg/kg/injection, schedule: Q01DX009 (ip), vehicle: water): 100 % of control | T/C (dose: 100.0 mg/kg/injection, schedule: Q04DX003 (ip), vehicle: water): 99 % of control | T/C (dose: 200.0 mg/kg/injection, schedule: Q01DX009 (ip), vehicle: water): 96 % of control | T/C (dose: 200.0 mg/kg/injection, schedule: Q04DX003 (ip), vehicle: water): 106 % of control | T/C (dose: 400.0 mg/kg/injection, schedule: Q01DX009 (ip), vehicle: water): 96 % of control

O=C1OC(O)C(Cl)=C1Cl (stereo unspecified)
T/C [13]: 101 % of control | T/C (dose: 3.12 mg/kg/injection, schedule: Q01DX009 (ip), vehicle: saline with Tween-80): 107 % of control | T/C [14]: 109 % of control and 115 % of control | T/C [1]: 115 % of control

CNC(=O)Oc1ccc2ccccc2c1
T/C [4]: 111 % of control | T/C [8]: 113 % of control | T/C [9]: 103 % of control

CSC(=S)NN=C1CCCCC1
T/C (dose: 0.78 mg/kg/injection, schedule: Q01DX009 (ip), vehicle: saline with Tween-80): 99 % of control | T/C [13]: 105 % of control | T/C (dose: 3.13 mg/kg/injection, schedule: Q01DX009 (ip), vehicle: saline with Tween-80): 104 % of control | T/C [14]: 102 % of control

CCN(CC)CCCC(C)Nc1c2ccccc2nc2c(Cl)cccc12 (stereo unspecified)
T/C (dose: 25.0 mg/kg/injection, schedule: Q01DX009 (ip), vehicle: saline sonified): 88 % of control | T/C (dose: 50.0 mg/kg/injection, schedule: Q01DX009 (ip), vehicle: saline sonified): 94 % of control

Cc1ccc(C)c(N2CCN(c3ccncc3N)CC2)c1
T/C (dose: 37.5 mg/kg/injection, schedule: Q04DX003 (ip), vehicle: saline with Tween-80): 113 % of control | T/C [6]: 122 % of control | T/C [7]: 118 % of control

CC(C)(C)C(O)CC(C)(O)C(C)(C)C (stereo unspecified)
T/C (dose: 6.3 mg/kg/injection, schedule: Q01DX009 (ip), vehicle: Klucel (hydroxypropylcellulose) (HPC)): 101 % of control | T/C (dose: 12.5 mg/kg/injection, schedule: Q01DX009 (ip), vehicle: Klucel (hydroxypropylcellulose) (HPC)): 107 % of control | T/C (dose: 25.0 mg/kg/injection, schedule: Q01DX009 (ip), vehicle: Klucel (hydroxypropylcellulose) (HPC)): 108 % of control

S=C1SCN(Cc2ccccc2)CN1Cc1ccccc1
T/C [12]: 113 % of control | T/C (dose: 200.0 mg/kg/injection, schedule: Q01DX001 (ip), vehicle: Klucel (hydroxypropylcellulose) (HPC)): 100 % of control | T/C (dose: 400.0 mg/kg/injection, schedule: Q01DX001 (ip), vehicle: Klucel (hydroxypropylcellulose) (HPC)): 100 % of control

CC(C)(C)NCCC(O)c1cc(C(F)(F)F)nc2c(C(F)(F)F)cccc12 (stereo unspecified)
T/C [3]: 105 % of control | T/C [4]: 104 % of control

O=NN(CCCl)C(=O)Nc1ccc(Cl)cc1
T/C (dose: 8.2 mg/kg/injection, schedule: Q04DX003 (ip), vehicle: saline with Tween-80): 195 % of control | T/C (dose: 12.5 mg/kg/injection, schedule: Q04DX003 (ip), vehicle: saline with Tween-80): 195 % of control | T/C (dose: 18.75 mg/kg/injection, schedule: Q04DX003 (ip), vehicle: saline with Tween-80): 200 % of control
